What was measured:
[1] = test system: HBV DNA replication; assay: Inhibition of HBV virus replication (HBV DNA in supernatant, qPCR); type: cell-based; conditions: Hepatitis B virus, 240 h; HepG2.2.15 cells, 10 days treatment, supernatant HBV DNA by qPCR
Protocol: (§1) The chromosomes of HepG2.2.15 cells (SELLS, PNAS, 1987 and SELLS, JV, 1988) integrate the complete HBV genome and stably express viral RNA and viral proteins. HepG2.2.15 cells are able to secrete mature HBV particles and HBsAg into the culture medium. Viral particle DNA and HBsAg secreted by HepG 2.2.15 cells can be quantified by qPCR and ELISA methods, and the effects of the compound on virus replication and HBsAg secretion are thus examined.
(§2) HepG 2.2.15 Cells (8,000 per well) were seeded into 96-well cell culture plates in duplicate and cultured for 3 days until the cells grew to fill in pores. Cells were treated with 4-fold serial diluted compound solution for 10 days, and the compound solution was exchanged once every other day, the final concentration of DMSO in all wells was 0.5% and DMSO was used as a drug-free control. On the eleventh day, the supernatant was collected for quantitative detection of HBV DNA.
qPCR method was used for detection of viral genomic DNA, HBV primers were as follows: HBV-For-202, […]; HBV-Rev-315, […].
Using the SY BR Premix Ex Taq II—Takara DRR081S kit, 1 ≈L of the cell culture supernatant was used as a template, a plasmid containing the HBV genome was used for plotting a standard curve, and virus copy number was calculated using the standard curve. Concentration-virus copy number was treated with Graphpad Prism 5 software and the IC50 of inhibition of virus replication by compounds was calculated by a four-parameter nonlinear regression model.

[2] = test system: HBsAg secretion; assay: Inhibition of HBsAg secretion (ELISA); type: cell-based, HBV; conditions: Hepatitis B virus, HepG2.2.15, 240 h, read-out: HbsAg IC50 (nM)
Protocol: as §1
as §2, with “HBsAg.” for “HBV DNA.”
The level of HBsAg secreted by the cells after treatment with the compound was detected by ELISA. The method used a hepatitis B surface antigen diagnostic kit (Shanghai K ehua Biotechnology Co., Ltd. 510910113). 25 ≈L of the supernatant to be examined (diluted to 75 ≈L in PBS) was added to each well of the ELISA plate, and a kit-positive control and a negative control were set. The ELISA plates were blocked with mounting paper and incubated at 37 eC for 60 minutes. The ELISA plate was took out, and the mounting paper was removed, then 50 ≈L of enzyme conjugate was added into each well. After shaking for 10 seconds, the ELISA plates were blocked with mounting paper and incubated at 37 eC for 30 minutes. The ELISA plate was took out, and the mounting paper was removed, and the ELISA plate was repeated washing five times: liquid in the wells was discard each time; the wells was filled with washing solution, then stood for 60 seconds and spined dry; and liquid residue on blotting paper was patted dry. After the washing was completed, to all wells was immediately added a mixture of freshly prepared developer A and developer B: 100 ≈L per well. After shaking for 10 seconds on oscillator, the ELISA plates were blocked with mounting paper and incubated at 37 eC for 30 minutes. To all wells were added 50 ≈L of stop solution. Data were read at a wavelength of 450 nm on an Envision plate reader. Concentration-HBsAg OD450 value was treated with Graphpad Prism 5 software and the IC50 of inhibition of HBsAg secretion by compounds was calculated by a four-parameter nonlinear regression model.

SMILES | IC50 [1] | IC50 [2]
CCOCc1cc2c(cc1OCCCOC)CC(C(C)C)n1cc(C(=O)O)c(=O)cc1-2 (centres unmarked) [Example 7, 10-(ethoxymethyl)-6-isopropyl-9-(3-methoxypropoxy)-2-oxo-6,7-dihydro-2H-pyrido[2,1-a]isoquinoline-3-carboxylic Acid] | 8.16 nM | 13.5 nM
COCCCOc1cc2c(cc1-c1csc(C)n1)-c1cc(=O)c(C(=O)O)cn1C(C(C)C)C2 (centres unmarked) [Example 14, 6-isopropyl-9-(3-methoxypropoxy)-10-(2-methylthiazol-4-yl)-2-oxo-6,7-dihydro-2H-pyrido[2,1-a]isoquinoline-3-carboxylic Acid] | 3.36 nM | 7.2 nM
COc1cc2c(cc1-c1cccs1)CC(C(C)C)n1cc(C(=O)O)c(=O)cc1-2 (centres unmarked) [Example 17, 6-isopropyl-10-methoxy-2-oxo-9-(thiophen-2-yl)-6,7-dihydro-2H-pyrido[2,1-a]isoquinoline-3-carboxylic Acid] | 3.6 nM | 2.14 nM
COCc1csc(-c2cc3c(cc2OC)-c2cc(=O)c(C(=O)O)cn2C(C(C)C)C3)n1 (centres unmarked) [Example 78, 6-isopropyl-10-methoxy-9-(4-(methoxymethyl)thiazol-2-yl)-2-oxo-6,7-dihydro-2H-pyrido[2,1-a]isoquinoline-3-carboxylic Acid] | 2.84 nM | 3.26 nM
CC(=O)c1cc2c(cc1-c1ccco1)CC(C(C)C)n1cc(C(=O)O)c(=O)cc1-2 (centres unmarked) [Example 31, 10-acetyl-9-(furan-2-yl)-6-isopropyl-2-oxo-6,7-dihydro-2H-pyrido[2,1-a]isoquinoline-3-carboxylic Acid] | 6.26 nM | 8.2 nM
COC(=O)c1cc2c(cc1N1CCCC1)CC(C(C)C)n1cc(C(=O)O)c(=O)cc1-2 (centres unmarked) [Example 34, 6-isopropyl-10-(methoxycarbonyl)-2-oxo-9-(pyrrolidin-1-yl)-6,7-dihydro-2H-pyrido[2,1-a]isoquinoline-3-carboxylic Acid] | 4.74 nM | 9.85 nM
COCCCOc1cc2c(cc1-c1cncs1)-c1cc(=O)c(C(=O)O)cn1C(C(C)C)C2 (centres unmarked) [Example 33, 6-isopropyl-9-(3-methoxypropoxy)-2-oxo-10-(thiazol-5-yl)-6,7-dihydro-2H-pyrido[2,1-a]isoquinoline-3-carboxylic Acid] | 1.93 nM | 3.08 nM
COc1cc2c(cc1-c1ncc(Br)s1)CC(C(C)C)n1cc(C(=O)O)c(=O)cc1-2 (centres unmarked) [Example 80, 9-(5-bromothiazol-2-yl)-6-isopropyl-10-methoxy-2-oxo-6,7-dihydro-2H-pyrido[2,1-a]isoquioline-3-carboxlic Acid] | 2.57 nM | 2.16 nM
COCCCOc1cc2c(cc1-c1ccccn1)-c1cc(=O)c(C(=O)O)cn1C(C(C)C)C2 (centres unmarked) [Example 67, 6-isopropyl-9-(3-methoxypropoxy)-2-oxo-10-(pyridin-2-yl)-6,7-dihydro-2H-pyrido[2,1-a]isoquinoline-3-carboxylic Acid] | 4.36 nM | 7.77 nM
COCCCOc1cc2c(cc1-c1csc(N)n1)-c1cc(=O)c(C(=O)O)cn1C(C(C)C)C2 (centres unmarked) [Example 8, 10-(2-aminothiazol-4-yl)-6-isopropyl-9-(3-methoxypropoxy)-2-oxo-6,7-dihydro-2H-pyrido[2,1-a]isoquinoline-3-carboxylic Acid] | 4.46 nM | 6.28 nM
COc1cc2c(cc1-c1ccc(Cl)s1)CC(C(C)C)n1cc(C(=O)O)c(=O)cc1-2 (centres unmarked) [Example 79, 9-(5-chlorothiophen-2-yl)-6-isopropyl-10-methoxy-2-oxo-6,7-dihydro-2H-pyrido[2,1-a]isoquinoline-3-carboxylic Acid] | 2.01 nM | 2.95 nM
CC(C)C1Cc2cc(OCCC3CC3)c(-c3nccs3)cc2-c2cc(=O)c(C(=O)O)cn21 (centres unmarked) [Example 22, 9-(2-cyclopropylethoxy)-6-isopropyl-2-oxo-10-(thiazol-2-yl)-6,7-dihydro-2H-pyrido[2,1-a]isoquinoline-3-carboxylic Acid] | 0.84 nM | 0.65 nM
COCCCOc1cc2c(cc1C(C)=O)-c1cc(=O)c(C(=O)O)cn1C(C(C)C)C2 (centres unmarked) [Example 6, 10-acetyl-6-isopropyl-9-(3-methoxypropoxy)-2-oxo-6,7-dihydro-2H-pyrido[2,1-a]isoquinoline-3-carboxylic Acid] | 3.02 nM | 3.63 nM
CC(C)C1Cc2cc(N3CCCC3)c(-c3nccs3)cc2-c2cc(=O)c(C(=O)O)cn21 (centres unmarked) [Example 69, 6-isopropyl-2-oxo-9-(pyrrolidin-1-yl)-10-(thiazol-2-yl)-6,7-dihydro-2H-pyrido[2,1-a]isoquinoline-3-carboxylic Acid] | 10.2 nM | 15.2 nM
COCCCOc1cc2c(cc1-c1nccs1)-c1cc(=O)c(C(=O)O)cn1C(C(C)C)C2 (centres unmarked) [Example 9, 6-isopropyl-9-(3-methoxypropoxy)-2-oxo-10-(thiazol-2-yl)-6,7-dihydro-2H-pyrido[2,1-a]isoquinoline-3-carboxylic Acid] | 0.18 nM | 0.25 nM
COC(=O)c1cc2c(cc1-c1ccc(Cl)s1)CC(C(C)C)n1cc(C(=O)O)c(=O)cc1-2 (centres unmarked) [Example 73, 9-(5-chlorothiophen-2-yl)-6-isopropyl-10-(methoxycarbonyl)-2-oxo-6,7-dihydro-2H-pyrido[2,1-a]isoquinoline-3-carboxylic Acid] | 3.88 nM | 12.7 nM
COCCCOc1cc2c(cc1-c1cccs1)-c1cc(=O)c(C(=O)O)cn1C(C(C)C)C2 (centres unmarked) [Example 15, 6-isopropyl-9-(3-methoxypropoxy)-2-oxo-10-(thiophen-2-yl)-6,7-dihydro-2H-pyrido[2,1-a]isoquinoline-3-carboxylic Acid] | 0.39 nM | 0.77 nM
COCCCOc1cc2c(cc1C(=O)OCC(F)F)-c1cc(=O)c(C(=O)O)cn1C(C(C)C)C2 (centres unmarked) [Example 35, 10-((2,2-difluoroethoxy)carbonyl)-6-isopropyl-9-(3-methoxypropoxy)-2-oxo-6,7-dihydro-2H-pyrido[2,1-a]isoquinoline-3-carboxylic Acid] | 7.59 nM | 9.25 nM
CNC(=O)c1cc2c(cc1OCCCOC)CC(C(C)C)n1cc(C(=O)O)c(=O)cc1-2 (centres unmarked) [Example 5, 6-isopropyl-9-(3-methoxypropoxy)-10-(methylcarbamoyl)-2-oxo-6,7-dihydro-2H-pyrido[2,1-a]isoquinoline-3-carboxylic Acid] | 10.6 nM | 9.88 nM
COC(=O)c1cc2c(cc1-c1ccco1)CC(C(C)C)n1cc(C(=O)O)c(=O)cc1-2 (centres unmarked) [Example 32, 9-(furan-2-yl)-6-isopropyl-10-(methoxycarbonyl)-2-oxo-6,7-dihydro-2H-pyrido[2,1-a]isoquinoline-3-carboxylic Acid] | 7.57 nM | 9.62 nM
COC(=O)c1cc2c(cc1N1CC[C@H](OC(C)=O)C1)CC(C(C)C)n1cc(C(=O)O)c(=O)cc1-2 (stereo partly drawn) [Example 47, 9-((S)-3-acetoxypyrrolidin-1-yl)-6-isopropyl-10-(methoxycarbonyl)-2-oxo-6,7-dihydro-2H-pyrido[2,1-a]isoquinoline-3-carboxylic Acid] | 6.35 nM | 
C#CCOC(=O)c1cc2c(cc1OCCCOC)CC(C(C)C)n1cc(C(=O)O)c(=O)cc1-2 (centres unmarked) [Example 36, 6-isopropyl-9-(3-methoxypropoxy)-2-oxo-10-((prop-2-yn-1-yloxy)carbonyl)-6,7-dihydro-2H-pyrido[2,1-a]isoquinoline-3-carboxylic Acid] | 2.55 nM | 4.22 nM
COCCCOc1cc2c(cc1C(=O)CCC(F)(F)F)-c1cc(=O)c(C(=O)O)cn1C(C(C)C)C2 (centres unmarked) [Example 53, 6-isopropyl-9-(3-methoxypropoxy)-2-oxo-10-(4,4,4-trifluorobutanoyl)-6,7-dihydro-2H-pyrido[2,1-a]isoquinoline-3-carboxylic Acid] | 7.99 nM | 
